Results as given in patent US12295997B2, “Prostate neoantigens and their uses” (Janssen Biotech, Inc., priority 2020, dated 2025).

Test system: CD8+ and CD4+ T cells (autologous CD3+ Pan-T cells isolated from human normal PBMCs)
Assay: Exogenous autologous normal donor restimulation assay (15-mer overlapping peptide pools on CD1c+ dendritic cells, TNFα/IFNγ flow cytometry)
Assay type: cell-based
Conditions: 15-mer overlapping peptide pool; for Max. Fold Change over background CD4+ TNFαINFγ double positive DP / Max. Fold Change over background CD8+ TNFαINFγ double positive DP / Max. Frequency of CD4+ TNFαINFγ DP / Max. Frequency of CD8+ TNFαINFγ DP: Table 28, additional neoantigens, highest across normal donors; for Maximum Fold Change Over Background CD4+ cells / Maximum Fold Change Over Background CD8+ cells / Maximum Frequency of TNFα/IFNγ Double Positive CD4+ T cells / Maximum Frequency of TNFα/IFNγ Double Positive CD8+ T cells: Table 25; for Maximum Fold Change Over Background CD4+ cells: TNFα+IFNγ+ CD4+ T cells; for Maximum Fold Change Over Background CD4+ cells / Maximum Fold Change Over Background CD8+ cells: highest fold change over negative control across normal donors; for Maximum Fold Change Over Background CD8+ cells: TNFα+IFNγ+ CD8+ T cells; for Maximum Frequency of TNFα/IFNγ Double Positive CD4+ T cells / Maximum Frequency of TNFα/IFNγ Double Positive CD8+ T cells: highest frequency across normal donors
Method: CD1c+ Dendritic Cells (DC) isolated from human normal PBMCs were thawed using media (IMDM (Gibco) supplemented with glutamine, HEPES, 5% human serum (Sigma), and 1× Pen-Strep). DC cells were resuspended in media supplemented with IL-4 (Peprotech, 80 ng/mL) and GM-CSF (Gibco, 80 ng/mL), plated in 6 well microplates, and rested overnight at 37° C. (5% CO2). The following day, DC cells were counted and plated in a 96 well round bottom microplate at a concentration of 30,000 viable cells per well. Lyophilized peptides (15-mer overlapping peptides) were solubilized in 100% DMSO and pooled by neoantigen to between 5 mg/mL and 20 mg/mL. Neoantigen peptides pools were added to DCs for a final concentration of […] and rested for 2 hours at 37° C. (5% CO2). CEF Peptide Pool “Plus” (Cellular Technologies, Ltd.) was utilized as a positive control and DMSO at the same final concentration as the experimental peptides was utilized as a negative control. After 2 hours, DC cells were irradiated with 50 gray of ionizing radiation. Autologous CD3+ Pan-T cells isolated from human normal PBMCs were thawed using media. Following irradiation, autologous Pan-T cells were added to the irradiated DCs at 300,000 viable cells per well. Human IL-15 (Peprotech) was added to all wells at final concentration of 10 ng/mL.
Plates were incubated at 37° C. (5% CO2) for a total of 12 days. Media was refreshed every 2-3 days with IL-15 (10 ng/mL final concentration) and IL-2 (R&D systems, 10 IU/mL final concentration). On day 11 cells were re-stimulated with identical experimental peptide pools or controls, at same concentration as peptide stimulation on Day 1. Protein Inhibitor Cocktail (eBioscience) was added to every well and plate was incubated overnight at 37° C. (5% CO2).
On day 12, cells were stained for intracellular flow cytometry analysis. The cells were washed with PBS and stained with Live/Dead Fixable Aqua Dead Cell stain (Thermo-Fisher). Following the live/dead stain, cells were blocked using Biotin-Free Fc Receptor Blocker (Accurate Chemical & Scientific Corp). Extracellular cellular flow panel (1 μL/antibody per well in 50 μL) consisted of CD3 PerCP-Cy5.5 (Biolegend), CD4 BV421 (Biolegend), and CD8 APC-Cy7 (Biolegend). After extracellular staining, cells were fixed using Foxp3/fTranscription Factor Staining Buffer Set (eBioscience) and stained for intracellular proteins (1:50 dilution) using TNFα FITC (R&D Systems) and IFNγ BV785 (Biolegend). Cells were washed and resuspended in stain buffer and analyzed using a BD Celesta flow cytometer.
Flow cytometry cell staining analysis was completed using FlowJo v10. Cells were gated on live, singlet, CD3+ cells. The CD8+ and CD4+ T cells were analyzed for TNFα/IFNγ expression and the frequency of double positive TNFα/IFNγ CD8+ and the frequency of double positive TNFα/IFNγ CD4+ T cells were recorded. Responses were assessed to be positive when the frequency of double positive TNFα/IFNγ CD8+ or TNFα/IFNγ CD4+ T cells due to stimulation with an experimental peptide pool was increased greater than or equal to 3-fold over the DMSO only negative control for that donor and at least 0.01%.
(§1) Overlapping 15-mer peptides were designed to span each neoantigen incorporated into NeoGAd20 and NeoMVA to assess their ability to activate T cells using the exogenous autologous normal donor restimulation assay described in Example 1 as pools using TNFα and IFNγ production by CD8^+ and CD4^+ T cells as a readout.
as §1, with “Immunogenicity of various additional identified neoantigens was assessed. Overlapping” for “Overlapping”, “similarly to what was done in Example 11” for “incorporated into NeoGAd20 and NeoMVA”

Row | Sequence | Max. Fold Change over background CD4+ TNFαINFγ double positive DP | Max. Fold Change over background CD8+ TNFαINFγ double positive DP | Max. Frequency of CD4+ TNFαINFγ DP | Max. Frequency of CD8+ TNFαINFγ DP | Maximum Fold Change Over Background CD4+ cells | Maximum Fold Change Over Background CD8+ cells | Maximum Frequency of TNFα/IFNγ Double Positive CD4+ T cells | Maximum Frequency of TNFα/IFNγ Double Positive CD8+ T cells
1 | AGAGTISEGSVLHGQRLECDARRFFGCGTTILAEWEHH (listed as Homo sapiens) [AS59, ACSL3 alternative splicing] | 59.58 | 4.22 | 0.3 | 0.08 |  |  |  | 
2 | ANLKGTLQVRSGQAVSPR (listed as Homo sapiens) [AS21, RECQL4 alternative splicing] | 1.7 | 3.81 | 0.07 | 0.12 |  |  |  | 
3 | CEERGAAGSLISCE (listed as Homo sapiens) [FUS6, TMPRSS2->ERG gene fusion] |  |  |  |  | 2.27 | 3.50 | 0.016 | 0.056
4 | CGASACDVSLIAMDSA (listed as Homo sapiens) [FUS1, SLC45A3->ELK4 gene fusion] |  |  |  |  | 8.33 | 1.94 | 0.100 | 0.031
5 | DCMLSEEGGQARRGGSLCSLAAHTIASAARGRFLSRLSNFCAVVKASRGAPSCTWE (listed as Homo sapiens) [AS40, LRRC45 alternative splicing] | 15.34 | 178.52 | 0.89 | 2.41 |  |  |  | 
6 | DGFSGSLFAVVTRRCYFLKWRTIFPQSLMWL (listed as Homo sapiens) [FUS18, OPN3->CHML gene fusion] | 31.76 | 42.33 | 0.04 | 0.91 |  |  |  | 
7 | DGHSYTSKVNCLLLQDGFHGCVSITGAAGRRNLSIFLFLMLCKLEFHA (listed as Homo sapiens) [AS55.1, SPOCK1 alternative splicing] | 20.66 | 25.26 | 0.08 | 1.47 |  |  |  | 
8 | DLRRVATYCAPLPSSWRPGTGTTIPPRMRSC (listed as Homo sapiens) [FUS23, NUDT14->JAG2 gene fusion] | 12.77 | 11.05 | 0.12 | 0.62 |  |  |  | 
9 | DYWAQKEKGSSSFLRPSC (listed as Homo sapiens) [AS7, ACSM1 alternative splicing] |  |  |  |  | 2.50 | 52.60 | 0.045 | 2.630
10 | DYWAQKEKISIPRTHLC (listed as Homo sapiens) [AS6, ACSM1 alternative splicing] |  |  |  |  | 31.67 | 6.50 | 0.380 | 0.078
11 | EAFQRAAGEGGPGRGGARRGARVLQSPFCRAGAGEWLGHQSLR (listed as Homo sapiens) [AS41, RHPN1 alternative splicing] |  |  |  |  | 2.20 | 190.60 | 0.022 | 9.530
12 | ENASLVFTGSNSPIPACELSSHPAHGISPWIPSPGNEHFHGIKKQVKAIKVE (listed as Homo sapiens) [AS48, SYT17 alternative splicing] | 13.45 | 9.21 | 0.13 | 0.29 |  |  |  | 
13 | ENSGNASRWLHVPSSSDDWLGWKKSSAITSNS (listed as Homo sapiens) [AS50, LRIF1 alternative splicing] | 17.22 | 1.6 | 0.07 | 0.12 |  |  |  | 
14 | FARKMLEKVHRQHLQLSHNSQE (listed as Homo sapiens) [AS12, EVPL alternative splicing] | 7.32 | 6.03 | 0.28 | 0.19 |  |  |  | 
15 | FKKFDGPCGERGGGRTARALWARGDSVLTPALDPQTPVRAPSLTRAAAAV (listed as Homo sapiens) [AS47, AGRN alternative splicing] |  |  |  |  | 2.58 | 4.80 | 0.031 | 0.240
16 | FMIGELVGELCCQLTFRLPFLESLCQAVVTQALRFNPSFQEVCIYQDTDLM (listed as Homo sapiens) [AS2, SLC30A4 alternative splicing] | 110.68 | 5.06 | 0.86 | 0.09 |  |  |  | 
17 | FVQGKDWGLKKFIRRDF (listed as Homo sapiens) [Neoantigen M10, SPOP F133L] |  |  |  |  | 14.14 | 1.89 | 0.1 | 0.09
18 | FVQGKDWGVKKFIRRDF (listed as Homo sapiens) [Neoantigen M12, SPOP F133V] |  |  |  |  | 8.94 | 6.67 | 0.05 | 0.12
19 | GEVELSEGGEGQRHLAFPWACSGPGWRGVCCAAVEPA (listed as Homo sapiens) [AS32, TONSL alternative splicing] | 2.04 | 3.81 | 0.08 | 0.12 |  |  |  | 
20 | GLNLNTDRPGGYSYSIWWKNNAKNR (listed as Homo sapiens) [AS17, MPHOSPH9 alternative splicing] | 3.18 | 2.38 | 0.01 | 0.07 |  |  |  | 
21 | GMECTLGQVGAPSPRREEDGWRGGHSRFKADVPAPQGPCWGGQPGSAPSSAPPEQSLLD (listed as Homo sapiens) [AS51, CPNE7 alternative splicing] |  |  |  |  | 8.75 | 33.13 | 0.140 | 0.530
22 | GNTTLQQLGEASQAPSGSLIPLRLPLLWEVRG (listed as Homo sapiens) [AS16, LRRC45 alternative splicing] |  |  |  |  | 7.78 | 24.17 | 0.140 | 0.290
